{
  "source": "ChEMBL document CHEMBL5131473",
  "about": "“One-pot synthesis of oxoaporphines as potent antitumor agents and investigation of their mechanisms of actions” (Eur J Med Chem, 2022)",
  "key": {"T-24 [1]": {"tested_on": "T-24", "test": "Induction of apoptosis in human T24 cells assessed as late apoptotic cells at 20 uM incubated for 24 hrs by Annexin-V/PI staining based flow cytometry analysis (reference value: 0.543 %)", "format": "functional"}, "T-24 [2]": {"tested_on": "T-24", "test": "Induction of mitochondrial membrane potential dysfunction in human T24 cells assessed as mitochondrial fragment condensation at 10 to 15 uM by mito-tracker green dye based fluorescence microscopy", "format": "functional, cell-based", "conditions": "dose 10-15 µM"}, "T-24 [3]": {"tested_on": "T-24", "test": "Induction of cell cycle arrest in human T24 cells assessed as increase in CDK1 expression at 10 to 15 uM incubated for 24 hrs by chemiluminescence based Western blotting analysis", "format": "functional", "conditions": "dose 10-15 µM, DDE = dose-dependent effect"}, "T-24 [4]": {"tested_on": "T-24", "test": "Induction of mitochondrial Ca2+ production in human T24 cells assessed as increase in intracellular Ca2+ concentration at 10 uM by Rhod2-AM staining based fluorescence microscopic method", "format": "functional, cell-based"}, "T-24 [5]": {"tested_on": "T-24", "test": "Induction of apoptosis in human T24 cells assessed as increase in caspase 9 activity at 15 uM (Rvb= 7.2%)", "format": "functional"}, "T-24 [6]": {"tested_on": "T-24", "test": "Induction of mitochondrial membrane potential dysfunction in human T24 cells assessed as disappearance of cristae at 10 uM incubated for 24 hrs by TEM analysis", "format": "functional, cell-based"}, "T-24 [7]": {"tested_on": "T-24", "test": "Induction of cell cycle arrest in human T24 cells assessed as accumulation of cells at S phase at 10 uM incubated for 24 hrs by propidium iodide/RNase A staining based flow cytometry analysis (reference value: 42.47 %)", "format": "functional"}, "T-24 [8]": {"tested_on": "T-24", "test": "Induction of DNA damage in human T24 cells assessed as increase in gamma H2AX expression at 10 to 15 uM incubated for 24 hrs by Western blot analysis", "format": "functional, cell-based", "conditions": "dose 10-15 µM"}, "T-24 [9]": {"tested_on": "T-24", "test": "Induction of apoptosis in human T24 cells assessed as necrotic cells at 6 uM incubated for 24 hrs by Annexin-V/PI staining based flow cytometry analysis (reference value: 1.92 %)", "format": "functional"}, "T-24 [10]": {"tested_on": "T-24", "test": "Induction of apoptosis in human T24 cells assessed as contracted small fragmented nuclei at 2 uM by Hoechst33258 staining based fluorescence microscopy", "format": "functional, cell-based"}, "T-24 [11]": {"tested_on": "T-24", "test": "Induction of apoptosis in human T24 cells assessed as late apoptotic cells at 4 uM incubated for 24 hrs by Annexin-V/PI staining based flow cytometry analysis (reference value: 0.543 %)", "format": "functional"}, "T-24 [12]": {"tested_on": "T-24", "test": "Induction of mitochondrial membrane potential dysfunction in human T24 cells assessed as nuclear condensation at 2 to 4 uM by mito-tracker green dye based fluorescence microscopy", "format": "functional, cell-based", "conditions": "dose 2-4 µM"}, "T-24 [13]": {"tested_on": "T-24", "test": "Induction of apoptosis in human T24 cells assessed as early apoptotic cells at 4 uM incubated for 24 hrs by Annexin-V/PI staining based flow cytometry analysis (reference value: 3.27 %)", "format": "functional"}, "T-24 [14]": {"tested_on": "T-24", "test": "Induction of mitochondrial membrane potential dysfunction in human T24 cells assessed as disappearance of cristae at 2 uM incubated for 24 hrs by TEM analysis", "format": "functional, cell-based"}, "T-24 [15]": {"tested_on": "T-24", "test": "Induction of apoptosis in human T24 cells assessed as viable cells at 4 uM incubated for 24 hrs by Annexin-V/PI staining based flow cytometry analysis (reference value: 94.3 %)", "format": "functional", "conditions": "read-out: Activity"}, "T-24 [16]": {"tested_on": "T-24", "test": "Induction of mitochondrial ROS generation in human T24 cells at 0.5 uM measured after 24 hrs by DCFH-DA staining based confocal microscopy method", "format": "functional, cell-based"}, "T-24 [17]": {"tested_on": "T-24", "test": "Induction of apoptosis in human T24 cells assessed as increase in caspase 9 activity at 1 uM (Rvb= 7.2%)", "format": "functional"}, "T-24 [18]": {"tested_on": "T-24", "test": "Induction of mitochondrial membrane potential dysfunction in human T24 cells assessed as change in morphology at 0.5 to 1 uM by Mitotracker green dye based fluorescence microscopy", "format": "functional, cell-based", "conditions": "dose 0.5-1 µM"}, "T-24 [19]": {"tested_on": "T-24", "test": "Induction of cell cycle arrest in human T24 cells assessed as accumulation of cells at G1 phase at 0.5 uM incubated for 24 hrs by propidium iodide/RNase A staining based flow cytometry analysis (reference value: 51.71 %)", "format": "functional"}, "T-24 [20]": {"tested_on": "T-24", "test": "Cytotoxicity against human T24 cells assessed as decrease in cell viability at 0.5 uM by MTT assay", "format": "functional, cell-based", "conditions": "TDE = time-dependent effect"}, "T-24 [21]": {"tested_on": "T-24", "test": "Induction of mitochondrial membrane potential dysfunction in human T24 cells assessed as decrease in ATP production at 1 uM", "format": "functional", "set-up": "scale not given: the % may be the effect or the level left"}, "T-24 [22]": {"tested_on": "T-24", "test": "Induction of apoptosis in human T24 cells assessed as condensation of nuclei at 0.5 uM by Hoechst33258 staining based fluorescence microscopy", "format": "functional, cell-based"}, "T-24 [23]": {"tested_on": "T-24", "test": "Induction of apoptosis in human T24 cells assessed as increase in caspase 3 activity at 1 uM (Rvb= 3.1%)", "format": "functional"}, "T-24 [24]": {"tested_on": "T-24", "test": "Induction of cell cycle arrest in human T24 cells assessed as increase in Cyclin B expression at 0.5 to 1 uM incubated for 24 hrs by chemiluminescence based Western blotting analysis", "format": "functional", "conditions": "dose 0.5-1 µM, DDE = dose-dependent effect"}, "T-24 [25]": {"tested_on": "T-24", "test": "Induction of mitochondrial membrane potential dysfunction in human T24 cells assessed as shrinking mitochondria at 0.5 uM incubated for 24 hrs by TEM analysis", "format": "functional, cell-based"}, "T-24 [26]": {"tested_on": "T-24", "test": "Induction of mitochondrial ROS generation in human T24 cells at 0.5 uM measured after 24 hrs by Mitotracker Red dye based confocal microscopy method", "format": "functional, cell-based"}, "T-24 [27]": {"tested_on": "T-24", "test": "Induction of apoptosis in human T24 cells assessed as contracted small fragmented nuclei at 0.5 uM by Hoechst33258 staining based fluorescence microscopy", "format": "functional, cell-based"}, "T-24 [28]": {"tested_on": "T-24", "test": "Induction of cell cycle arrest in human T24 cells assessed as accumulation of cells at G1 phase at 1 uM incubated for 24 hrs by propidium iodide/RNase A staining based flow cytometry analysis (reference value: 51.71 %)", "format": "functional"}, "T-24 [29]": {"tested_on": "T-24", "test": "Induction of apoptosis in human T24 cells assessed as necrotic cells at 0.5 uM incubated for 24 hrs by Annexin-V/PI staining based flow cytometry analysis (reference value: 1.92 %)", "format": "functional"}},
  "note": "Calls of active or inactive are those of the source. The calls are words filed in the database; no cut-off is given here.",
  "data": [
    {"compound": "O=C1c2ccccc2-c2cccc3ccnc1c23", "values": [
      {"measurement": "Activity", "setting": "T-24 [1]", "value": 4.89, "unit": "%"},
      {"measurement": "Activity", "setting": "T-24 [2]", "value": "Active"},
      {"measurement": "Activity", "setting": "T-24 [3]", "value": "Dde"},
      {"measurement": "Activity", "setting": "T-24 [4]", "value": "Active"},
      {"measurement": "Activity", "setting": "T-24 [5]", "value": 26.3, "unit": "%"},
      {"measurement": "Activity", "setting": "T-24 [6]", "value": "Active"},
      {"measurement": "Activity", "setting": "T-24 [7]", "value": 54.86, "unit": "%"},
      {"measurement": "Activity", "setting": "T-24 [8]", "value": "Active"}
    ]},
    {"compound": "O=C1c2cc([N+](=O)[O-])ccc2-c2ccc([N+](=O)[O-])c3ccnc1c23", "values": [
      {"measurement": "Activity", "setting": "T-24 [9]", "value": 3.14, "unit": "%"},
      {"measurement": "Activity", "setting": "T-24 [10]", "value": "Active"},
      {"measurement": "Activity", "setting": "T-24 [11]", "value": 5.49, "unit": "%"},
      {"measurement": "Activity", "setting": "T-24 [12]", "value": "Active"},
      {"measurement": "Activity", "setting": "T-24 [13]", "value": 32.3, "unit": "%"},
      {"measurement": "Activity", "setting": "T-24 [14]", "value": "Active"},
      {"measurement": "viability at 4 µM", "setting": "T-24 [15]", "value": 59.4, "unit": "%"}
    ]},
    {"compound": "O=C1c2ccccc2-c2ccc([N+](=O)[O-])c3ccnc1c23", "values": [
      {"measurement": "Activity", "setting": "T-24 [16]", "value": "Active"},
      {"measurement": "Activity", "setting": "T-24 [17]", "value": 53.6, "unit": "%"},
      {"measurement": "Activity", "setting": "T-24 [18]", "value": "Active"},
      {"measurement": "Activity", "setting": "T-24 [19]", "value": 0.58, "unit": "%"},
      {"measurement": "Activity", "setting": "T-24 [20]", "value": "Tde"},
      {"measurement": "Activity", "setting": "T-24 [21]", "value": 47.3, "unit": "%"},
      {"measurement": "Activity", "setting": "T-24 [22]", "value": "Active"},
      {"measurement": "Activity", "setting": "T-24 [23]", "value": 38.8, "unit": "%"},
      {"measurement": "Activity", "setting": "T-24 [24]", "value": "Dde"},
      {"measurement": "Activity", "setting": "T-24 [25]", "value": "Active"},
      {"measurement": "Activity", "setting": "T-24 [26]", "value": "Active"},
      {"measurement": "Activity", "setting": "T-24 [27]", "value": "Active"},
      {"measurement": "Activity", "setting": "T-24 [28]", "value": 3.53, "unit": "%"},
      {"measurement": "Activity", "setting": "T-24 [29]", "value": 1.54, "unit": "%"}
    ]}
  ]
}
